Assay in all cases: Agar dilution test according to Lorian (antibacterial activity)
What all share (format): cell-based
(In agar dilution, organisms are placed on agar that contains the substance at set levels.)

In one experiment the test system is Strept. pyogenes (308 A). The conditions noted are these: Müller Hinton Agar, 16 to 18 h at 37 C; lowest concentration fully preventing growth. The method, then: (§1) Die antibakterielle Wirksamkeit der erfindungsgemäßen Verbindungen wurde im Agar-Verdünnungstest nach Lorian (Antibiotics in Laboratory Medicine, Williams & Wilkins, Baltimore/London, 1980) bestimmt. Dabei wurden die Präparate in einer geometrischen Verdünnungsreihe mit dem Faktor 2 in Müller Hinton Agar verdünnt. Eine Petrischale enthielt nur Müller Hinton Agar und diente zur Kontrolle des Bakterienwachstums. Die Petrischalen wurden dann mit einem Denley-Multipoint-Inokulator, welcher 0,6 ul einer 1 : 100 verdünnten 18-Stunden-Kultur der Testbakterien übertrug, mit den entsprechenden Testbakterien beimpft. Nach 16 bis 18 Stunden Inkubation bei 37^. C wurden die Petrischalen makroskopisch auf Bakterienwachstum untersucht.
(§2) Die niedrigste Konzentration der erfindungsgemäßen Verbindungen, welche das Bakterienwachstum noch vollständig verhinderte, wurde als MIC (Minimum Inhibitory Concentration) angenommen.
(§3) In Tabelle 4 ist die Wirkung (Angabe des MIC in µg/ml) von verschiedenen erfindungsgemäßen Verbindungen gegen folgende Bakterien aufgeführt: • Staph. aureus (SG 511), Staph. aureus (285), Staph. aureus (503), Strept. pyogenes (308 A), Strept pyogenes (77 A), Strept. faecium (D).

The next experiment has as its system Staph. aureus (285). On the procedure: as §1, §2, §3
Another experiment deals with Strept. faecium (D). The method, then: as §1, §2, §3
A further experiment has as its system Staph. aureus (503). On the procedure: as §1, §2, §3
The subject of a further experiment is Staph. aureus (SG 511). On the procedure: as §1, §2, §3
For the next experiment, the system named is Strept. pyogenes (77 A). The conditions noted are these: Müller Hinton Agar, 16 to 18 h at 37 C; lowest concentration fully preventing growth. The method, then: as §1, §2, §3
The mark [1] stands for this setting: Müller Hinton Agar, 16 to 18 h at 37 C, lowest concentration fully preventing growth.

Values after ≈ are worked out from the molar mass of the structure shown. Where only a bound is given, the exact number is not on record here.

By MIC is commonly meant the smallest concentration in the dilution series that meets the test's criterion for growth inhibition. A higher MIC goes with a need for much substance. For the molecule `COC1CC(CC2CCC(C)C(C(C)C(=O)O)O2)OC2(OC(C)(C3CCC(C)(C4OC(C5OC(O)(COS(C)(=O)=O)C(C)CC5C)CC4C)O3)CC2C)C1C` (stereo not drawn) [Beispiel 2], the MIC in the experiment with Strept. pyogenes (308 A) is 0,004 µg/ml; against Staph. aureus (285) (setting [1]), 0,049 µg/ml; in the experiment with Strept. faecium (D) (setting [1]), 0,195 µg/ml; against Staph. aureus (503) (setting [1]) it was 0,049 µg/ml; against Staph. aureus (SG 511) (setting [1]), 0,098 µg/ml; in the experiment with Strept. pyogenes (77 A), 0,013 µg/ml.
Regarding `COC1CC(CC2CCC(C)C(C(C)C(=O)O)O2)OC2(OC(C)(C3CCC(C)(C4OC(C5OC(O)(COC(=O)COc6ccccc6)C(C)CC5C)CC4C)O3)CC2C)C1C` (stereo not drawn) [Beispiel 3], the MIC was 0,049 µg/ml with Strept. pyogenes (308 A); 0,391 µg/ml in the experiment with Staph. aureus (285) (setting [1]); 0,781 µg/ml with Strept. faecium (D) (setting [1]); 0,391 µg/ml in the experiment on Staph. aureus (503) (setting [1]); 0,391 µg/ml in the experiment on Staph. aureus (SG 511) (setting [1]); 0,049 µg/ml against Strept. pyogenes (77 A).
Take `COC1CC(CC2CCC(C)C(C(C)C(=O)O)O2)OC2(OC(C)(C3CCC(C)(C4OC(C5OC(O)(COC(=O)CCOc6ccccc6)C(C)CC5C)CC4C)O3)CC2C)C1C` (stereo not drawn) [Beispiel 4]: the minimal inhibitory concentration (MIC) is given as 0,098 µg/ml against Strept. pyogenes (308 A); 1,56 µg/ml with Staph. aureus (285) (setting [1]); 1,56 µg/ml against Strept. faecium (D) (setting [1]); 0,78 µg/ml with Staph. aureus (503) (setting [1]); 0,78 µg/ml in the experiment on Staph. aureus (SG 511) (setting [1]); 0,098 µg/ml in the experiment with Strept. pyogenes (77 A).
On to `COC1CC(CC2CCC(C)C(C(C)C(=O)O)O2)OC2(OC(C)(C3CCC(C)(C4OC(C5OC(O)(COC(C)=O)C(C)CC5C)CC4C)O3)CC2C)C1C` (stereo not drawn) [Beispiel 5], for which the MIC is given as 0,098 µg/ml in the experiment on Strept. pyogenes (308 A); 0,391 µg/ml with Staph. aureus (285) (setting [1]); 0,781 µg/ml against Strept. faecium (D) (setting [1]); 0,391 µg/ml in the experiment on Staph. aureus (503) (setting [1]); 0,391 µg/ml with Staph. aureus (SG 511) (setting [1]); 0,098 µg/ml in the experiment with Strept. pyogenes (77 A).
Turning to `COC1CC(CC2CCC(C)C(C(C)C(=O)O)O2)OC2(OC(C)(C3CCC(C)(C4OC(C5OC(O)(COC(=O)c6ccccc6)C(C)CC5C)CC4C)O3)CC2C)C1C` (stereo not drawn) [Beispiel 6], the MIC is given as 0,013 µg/ml against Strept. pyogenes (308 A); 0,391 µg/ml against Staph. aureus (285) (setting [1]); 0,391 µg/ml against Strept. faecium (D) (setting [1]); 0,098 µg/ml in the experiment on Staph. aureus (503) (setting [1]); 0,098 µg/ml in the experiment with Staph. aureus (SG 511) (setting [1]); 0,013 µg/ml in the experiment with Strept. pyogenes (77 A).
Turning to `COC1CC(CC2CCC(C)C(C(C)C(=O)O)O2)OC2(OC(C)(C3CCC(C)(C4OC(C5OC(O)(COC(=O)Cc6ccccc6)C(C)CC5C)CC4C)O3)CC2C)C1C` (stereo not drawn) [Beispiel 7], the MIC against Strept. pyogenes (308 A) is on record as 0,004 µg/ml; in the experiment with Staph. aureus (285) (setting [1]), 0,391 µg/ml; against Strept. faecium (D) (setting [1]), 0,391 µg/ml; against Staph. aureus (503) (setting [1]), 0,195 µg/ml; against Staph. aureus (SG 511) (setting [1]) it was 0,195 µg/ml; with Strept. pyogenes (77 A), 0,004 µg/ml.
With `COC1CC(CC2CCC(C)C(C(C)C(=O)O)O2)OC2(OC(C)(C3CCC(C)(C4OC(C5OC(O)(COC(=O)C=CC(=O)O)C(C)CC5C)CC4C)O3)CC2C)C1C` (stereo not drawn) [Beispiel 23], the MIC against Strept. faecium (D) (Enterococcus faecium) was 0.39 µg/mL (≈ 0.474 µM).
Consider `COC1CC(CC2CCC(C)C(C(C)C(=O)O)O2)OC2(OC(C)(C3CCC(C)(C4OC(C5OC(O)(COC(=O)C(C)C)C(C)CC5C)CC4C)O3)CC2C)C1C` (stereo not drawn) [Beispiel 27], for which the MIC in the experiment on Staph. aureus (285) (Staphylococcus aureus) was 0.39 µg/mL (≈ 0.491 µM); in the experiment on Strept. faecium (D) (Enterococcus faecium), above 100 µg/mL; in the experiment with Staph. aureus (503) (Staphylococcus aureus), 0.19 µg/mL (≈ 0.239 µM); with Staph. aureus (SG 511) (Staphylococcus aureus) it was 0.39 µg/mL (≈ 0.491 µM).
For the molecule `COC1CC(CC2CCC(C)C(C(C)C(=O)O)O2)OC2(OC(C)(C3CCC(C)(C4OC(C5OC(O)(COC(=O)c6c(Br)c(Br)c(Br)c(Br)c6C(=O)O)C(C)CC5C)CC4C)O3)CC2C)C1C` (stereo not drawn) [Beispiel 29], the MIC with Staph. aureus (285) (Staphylococcus aureus) was 3.13 µg/mL (≈ 2.63 µM); in the experiment with Strept. faecium (D) (Enterococcus faecium), 3.13 µg/mL (≈ 2.63 µM); in the experiment with Staph. aureus (503) (Staphylococcus aureus), 1.56 µg/mL (≈ 1.31 µM); with Staph. aureus (SG 511) (Staphylococcus aureus) it was 1.56 µg/mL (≈ 1.31 µM).
With `COC1CC(CC2CCC(C)C(C(C)C(=O)O)O2)OC2(OC(C)(C3CCC(C)(C4OC(C5OC(O)(COC(=O)c6ccccc6C(=O)O)C(C)CC5C)CC4C)O3)CC2C)C1C` (stereo not drawn) [Beispiel 31], the MIC with Staph. aureus (285) (Staphylococcus aureus), against Staph. aureus (503) (Staphylococcus aureus) and in the experiment on Staph. aureus (SG 511) (Staphylococcus aureus) was 0.78 µg/mL (≈ 0.893 µM) in each case.

The values above are taken from EP0324390A2, “Nigericin derivatives, method for their preparation, compositions containing them and use of these compositions” (priority 1988, dated 1989).
